Data reported in patent US11034648B2, “Cystobactamide derivatives” (priority 2017, dated 2021).
Values after ≈ are worked out from the molar mass of the structure shown.

How the values were obtained:
Type in all cases: cell-based
P. aeruginosa ΔmexAB = experiment: microbe, parasite or virus in culture; conditions: Pseudomonas aeruginosa, 16 h, read-out: MIC P. aeruginosa ΔmexAB, efflux-deficient strain; small panel, Tables 1a/1b
Protocol: (§1) Cystobactamid derivatives synthesized were tested against relevant Gram negative and positive bacteria of clinical interest. Experimental procedures used for the biological characterization of the compounds are the same as previously described in WO 2016/082934.
(§2) Bacterial strains used in susceptibility assays (minimum inhibitory concentration, MIC) were either part of our internal strain collection or purchased from the German Collection of Microorganisms and Cell Cultures (Deutsche Sammlung von Mikroorganismen und Zellkulturen, DSMZ) and the American Type Culture Collection (ATCC). The susceptible E. coli strain (WT) and fluoroquinolone-resistant mutants E. coli WT-3 and WT-III were kindly provided by Prof Dr. P. Heisig, Pharmaceutical Biology and Microbiology, University of Hamburg, Germany. The efflux-deficient strain P. aeruginosa ΔmexAB was kindly provided by Prof Dr. S. Häußler, Institute for Molecular Bacteriology, TWINCORE, Hannover, Germany. All compounds were prepared as DMSO stocks and MIC values were determined in standard microbroth dilution assays in 96-well MTPs as described in Baumann et al., Angew Chem Int Ed Engl. 2014; 53(52):14605-9. In brief, overnight cultures of bacteria were diluted in either tryptic soy broth (TSB: 1.7% peptone casein, 0.3% peptone soymeal, 0.25% glucose, 0.5% NaCl, 0.25% K2HPO4; pH 7.3; S. pneumoniae and E. faecalis) or cation-adjusted Müller-Hinton Broth (BBL™, BD; all other bacteria) and adjusted to 10^4-10^6 cfu/mL. Bacteria were grown in the presence of the derivatives in serial dilution for approx. 16 h at 30-37° C. MIC values were determined and were defined as the antibiotic concentration at which no visual growth of bacteria was observed.

E. coli ΔtolC = experiment: microbe, parasite or virus in culture; conditions: Escherichia coli, 16 h, read-out: MIC E. coli ΔtolC, small panel, Tables 1a/1b; no visual growth after approx. 16 h
Protocol: as §1, §2

P. aeruginosa WT PA14 = experiment: MIC, microbroth dilution susceptibility assay; conditions: Pseudomonas aeruginosa, PA14, small panel, Tables 1a/1b; read-out: MIC P. aeruginosa WT PA14
Protocol: as §1, §2

S. aureus Newman = experiment: MIC, microbroth dilution susceptibility assay; conditions: Staphylococcus aureus, NEWMAN; small panel, Tables 1a/1b; read-out: MIC S. aureus Newman
Protocol: as §1, §2

E. coli WT DSM-1116 = experiment: MIC, microbroth dilution susceptibility assay; conditions: Escherichia coli, DSM1116; small panel, Tables 1a/1b; no visual growth after approx. 16 h; read-out: MIC E. coli WT DSM-1116
Protocol: as §1, §2

CC(C)Oc1c(NC(=O)c2ccc(NC(=O)[C@H](CC(N)=O)NC(=O)c3ccc(NC(=O)c4cccc(N)c4)cc3)cc2)ccc(C(=O)Nc2ccc(C(=O)O)cc2)c1O [Compound 42, (S)-4-(4-(4-(4-amino-2-(4-(3-aminobenzamido)benzamido)-4-oxobutanamido)benzamido)-2-hydroxy-3-isopropoxybenzamido)benzoic acid]
MIC (P. aeruginosa ΔmexAB): 4 µg/mL (≈ 4.99 µM)
MIC (E. coli ΔtolC): 2 µg/mL (≈ 2.49 µM)
MIC (P. aeruginosa WT PA14): > 64 µg/mL
MIC (S. aureus Newman): > 64 µg/mL
MIC (E. coli WT DSM-1116): 32 µg/mL (≈ 39.9 µM)

CC(C)Oc1cc(C(=O)Nc2ccc(C(=O)O)cc2)ccc1NC(=O)c1ccc(NC(=O)[C@H](CC(N)=O)NC(=O)c2ccc(NC(=O)c3ccc([N+](=O)[O-])cc3)cc2)cc1 [Compound 69, (S)-4-(4-(4-(4-amino-2-(4-(4-nitrobenzamido)benzamido)-4-oxobutanamido)benzamido)-3-isopropoxybenzamido)benzoic acid]
MIC (P. aeruginosa ΔmexAB): 1 µg/mL (≈ 1.23 µM)
MIC (E. coli ΔtolC): 0.06 µg/mL (≈ 0.0735 µM)
MIC (P. aeruginosa WT PA14): > 64 µg/mL
MIC (S. aureus Newman): > 64 µg/mL
MIC (E. coli WT DSM-1116): > 64 µg/mL

CC(C)Oc1c(NC(=O)c2ccc(NC(=O)[C@H](CC(N)=O)NC(=O)c3ccc(NC(=O)c4ccc(C#N)cc4)cc3)cc2)ccc(C(=O)Nc2ccncc2)c1O [Compound 94, (S)-2-(4-(4-cyanobenzamido)benzamido)-N1-(4-((3-hydroxy-2-isopropoxy-4-(pyridin-4-ylcarbamoyl)phenyl)carbamoyl)phenyl)succinamide]
MIC (P. aeruginosa ΔmexAB): > 64 µg/mL
MIC (E. coli ΔtolC): 0.03 µg/mL (≈ 0.039 µM)
MIC (P. aeruginosa WT PA14): > 64 µg/mL
MIC (S. aureus Newman): > 64 µg/mL
MIC (E. coli WT DSM-1116): > 64 µg/mL

C/C(=C\c1ccc(C#N)cc1)C(=O)Nc1ccc(C(=O)N[C@@H](CC(N)=O)C(=O)Nc2ccc(C(=O)Nc3ccc(C(=O)Nc4ccc(C(=O)O)cc4)c(O)c3OC(C)C)cc2)cc1 [Compound 58, (S,E)-4-(4-(4-(4-amino-2-(4-(3-(4-cyanophenyl)-2-methylacrylamido)benzamido)-4-oxobutanamido)benzamido)-2-hydroxy-3-isopropoxybenzamido)benzoic acid]
MIC (P. aeruginosa ΔmexAB): 0.25 µg/mL (≈ 0.293 µM)
MIC (E. coli ΔtolC): < 0.03 µg/mL
MIC (P. aeruginosa WT PA14): 1 µg/mL (≈ 1.17 µM)
MIC (S. aureus Newman): 0.06 µg/mL (≈ 0.0704 µM)
MIC (E. coli WT DSM-1116): 0.125 µg/mL (≈ 0.147 µM)

Cc1cc(C(=O)Nc2ccc(C(=O)N[C@@H](CC(N)=O)C(=O)Nc3ccc(C(=O)Nc4ccc(C(=O)Nc5ccc(C(=O)O)cc5)c(O)c4OC(C)C)cc3)cc2)ccc1C#N [Compound 52, (S)-4-(4-(4-(4-amino-2-(4-(4-cyano-3-methylbenzamido)benzamido)-4-oxobutanamido)benzamido)-2-hydroxy-3-isopropoxybenzamido)benzoic acid]
MIC (P. aeruginosa ΔmexAB): 0.5 µg/mL (≈ 0.605 µM)
MIC (E. coli ΔtolC): 0.03 µg/mL (≈ 0.0363 µM)
MIC (P. aeruginosa WT PA14): 4 µg/mL (≈ 4.84 µM)
MIC (S. aureus Newman): 2 µg/mL (≈ 2.42 µM)
MIC (E. coli WT DSM-1116): 0.5 µg/mL (≈ 0.605 µM)

CC(C)Oc1c(NC(=O)c2ccc(NC(=O)[C@H](CC(N)=O)NC(=O)c3ccc(NC(=O)c4ccc(S(C)(=O)=O)cc4)cc3)cc2)ccc(C(=O)Nc2ccc(C(=O)O)cc2)c1O [Compound 56, (S)-4-(4-(4-(4-amino-2-(4-(4-(methylsulfonyl)benzamido)benzamido)-4-oxobutanamido)benzamido)-2-hydroxy-3-isopropoxybenzamido)benzoic acid]
MIC (P. aeruginosa ΔmexAB): > 64 µg/mL
MIC (E. coli ΔtolC): < 0.03 µg/mL
MIC (P. aeruginosa WT PA14): > 64 µg/mL
MIC (S. aureus Newman): > 64 µg/mL
MIC (E. coli WT DSM-1116): 2 µg/mL (≈ 2.31 µM)

CC(C)Oc1c(NC(=O)c2ccc(NC(=O)[C@H](CC(N)=O)NC(=O)c3ccc(NC(=O)c4ccc(C#N)cc4)cc3)cc2)ccc(C(=O)Nc2ccn(C)c2)c1O [Compound 87, (S)-2-(4-(4-cyanobenzamido)benzamido)-N1-(4-((3-hydroxy-2-isopropoxy-4-((1-methyl-1H-pyrrol-3-yl)carbamoyl)phenyl)carbamoyl)phenyl)succinamide]
MIC (P. aeruginosa ΔmexAB): > 64 µg/mL
MIC (E. coli ΔtolC): < 0.03 µg/mL
MIC (P. aeruginosa WT PA14): > 64 µg/mL
MIC (S. aureus Newman): > 64 µg/mL
MIC (E. coli WT DSM-1116): > 64 µg/mL

CC(C)Oc1c(NC(=O)c2ccc(NC(=O)[C@H](CC(N)=O)NC(=O)c3ccc(NC(=O)c4ccc(F)cc4)cc3)cc2)ccc(C(=O)Nc2ccc(C(=O)O)cc2)c1O [Compound 39, (S)-4-(4-(4-(4-amino-2-(4-(4-fluorobenzamido)benzamido)-4-oxobutanamido)benzamido)-2-hydroxy-3-isopropoxybenzamido)benzoic acid]
MIC (P. aeruginosa ΔmexAB): 2 µg/mL (≈ 2.49 µM)
MIC (E. coli ΔtolC): 0.5 µg/mL (≈ 0.621 µM)
MIC (P. aeruginosa WT PA14): > 64 µg/mL
MIC (S. aureus Newman): 2 µg/mL (≈ 2.49 µM)
MIC (E. coli WT DSM-1116): 0.5 µg/mL (≈ 0.621 µM)

CO[C@@H](C(N)=O)[C@H](NC(=O)c1ccc(NC(=O)/C(C)=C/c2ccc(C#N)cc2)cc1)C(=O)Nc1ccc(C(=O)Nc2ccc(C(=O)Nc3ccc(C(=O)O)cc3)c(O)c2OC(C)C)cc1 [Compound 123, 4-(4-(4-((2S,3R)-4-amino-2-(4-((E)-3-(4-cyanophenyl)-2-methylacrylamido)benzamido)-3-methoxy-4-oxobutanamido)benzamido)-2-hydroxy-3-isopropoxybenzamido)benzoic acid]
MIC (P. aeruginosa ΔmexAB): 2 µg/mL (≈ 2.27 µM)
MIC (E. coli ΔtolC): 0.5 µg/mL (≈ 0.567 µM)
MIC (P. aeruginosa WT PA14): 8 µg/mL (≈ 9.07 µM)
MIC (S. aureus Newman): 4 µg/mL (≈ 4.54 µM)
MIC (E. coli WT DSM-1116): 1 µg/mL (≈ 1.13 µM)

CC(C)Oc1c(NC(=O)c2ccc(NC(=O)[C@H](CC(N)=O)NC(=O)c3ccc(NC(=O)c4ccc(C#N)cc4)cc3)cc2)ccc(C(=O)N[C@@H]2CONC2=O)c1O [Compound 93, (S)-2-(4-(4-cyanobenzamido)benzamido)-N1-(4-((3-hydroxy-2-isopropoxy-4-(((R)-3-oxoisoxazolidin-4-yl)carbamoyl)phenyl)carbamoyl)phenyl)succinamide]
MIC (P. aeruginosa ΔmexAB): > 64 µg/mL
MIC (E. coli ΔtolC): 0.5 µg/mL (≈ 0.644 µM)
MIC (P. aeruginosa WT PA14): > 64 µg/mL
MIC (S. aureus Newman): > 64 µg/mL
MIC (E. coli WT DSM-1116): > 64 µg/mL

CC(C)Oc1c(NC(=O)c2ccc(NC(=O)[C@H](CC(N)=O)NC(=O)c3ccc(NC(=O)c4ccc([N+](=O)[O-])cc4)cc3)cc2)ccc(C(=O)Nc2ccc(C(N)=O)cc2)c1O [Compound 78, (S)—N1-(4-((4-((4-carbamoylphenyl)carbamoyl)-3-hydroxy-2-isopropoxyphenyl)carbamoyl)phenyl)-2-(4-(4-nitrobenzamido)benzamido)succinamide]
MIC (P. aeruginosa ΔmexAB): > 64 µg/mL
MIC (E. coli ΔtolC): ≤ 0.03 µg/mL
MIC (P. aeruginosa WT PA14): > 64 µg/mL
MIC (S. aureus Newman): 64 µg/mL (≈ 77 µM)
MIC (E. coli WT DSM-1116): 32 µg/mL (≈ 38.5 µM)

CC(C)Oc1c(NC(=O)c2ccc(NC(=O)[C@H](CC(N)=O)NC(=O)c3ccc(NC(=O)c4ccncc4)cc3)cc2)ccc(C(=O)Nc2ccc(C(=O)O)cc2)c1O [Compound 55, (S)-4-(4-(4-(4-amino-2-(4-(isonicotinamido)benzamido)-4-oxobutanamido)benzamido)-2-hydroxy-3-isopropoxybenzamido)benzoic acid]
MIC (P. aeruginosa ΔmexAB): 2 µg/mL (≈ 2.54 µM)
MIC (E. coli ΔtolC): < 0.03 µg/mL
MIC (P. aeruginosa WT PA14): > 64 µg/mL
MIC (S. aureus Newman): > 64 µg/mL
MIC (E. coli WT DSM-1116): 1 µg/mL (≈ 1.27 µM)

CC(C)Oc1c(NC(=O)c2ccc(NC(=O)[C@H](CC(N)=O)NC(=O)c3ccc(NC(=O)c4ccc([N+](=O)[O-])c(OC(C)C)c4O)cc3)cc2)ccc(C(=O)Nc2ccc(C(=O)O)cc2)c1O [Compound 48, (S)-4-(4-(4-(4-amino-2-(4-(2-hydroxy-3-isopropoxy-4-nitrobenzamido)benzamido)-4-oxobutanamido)benzamido)-2-hydroxy-3-isopropoxybenzamido)benzoic acid]
MIC (P. aeruginosa ΔmexAB): > 64 µg/mL
MIC (E. coli ΔtolC): > 64 µg/mL
MIC (P. aeruginosa WT PA14): > 64 µg/mL
MIC (S. aureus Newman): > 64 µg/mL
MIC (E. coli WT DSM-1116): > 64 µg/mL

CC(C)Oc1c(NC(=O)c2ccc(NC(=O)[C@H](CC(N)=O)NC(=O)c3ccc(NC(=O)c4ccc(C#N)cc4)cc3)cc2)ccc(C(=O)Nc2cccc(C(=O)O)c2)c1O [Compound 90, (S)-3-(4-(4-(4-amino-2-(4-(4-cyanobenzamido)benzamido)-4-oxobutanamido)benzamido)-2-hydroxy-3-isopropoxybenzamido)benzoic acid]
MIC (P. aeruginosa ΔmexAB): > 64 µg/mL
MIC (E. coli ΔtolC): 0.03 µg/mL (≈ 0.037 µM)
MIC (P. aeruginosa WT PA14): > 64 µg/mL
MIC (S. aureus Newman): 2 µg/mL (≈ 2.46 µM)
MIC (E. coli WT DSM-1116): 0.5 µg/mL (≈ 0.616 µM)

CC(C)Oc1c(NC(=O)c2ccc(NC(=O)[C@H](CC(N)=O)NC(=O)c3ccc(NC(=O)c4ccc5c(c4)COC5=O)cc3)cc2)ccc(C(=O)Nc2ccc(C(=O)O)cc2)c1O [Compound 57, (S)-4-(4-(4-(4-amino-4-oxo-2-(4-(1-oxo-1,3-dihydroisobenzofuran-5-carboxamido)benzamido)butanamido)benzamido)-2-hydroxy-3-isopropoxybenzamido)benzoic acid]
MIC (P. aeruginosa ΔmexAB): 1 µg/mL (≈ 1.19 µM)
MIC (E. coli ΔtolC): < 0.03 µg/mL
MIC (P. aeruginosa WT PA14): > 64 µg/mL
MIC (S. aureus Newman): 1 µg/mL (≈ 1.19 µM)
MIC (E. coli WT DSM-1116): < 0.03 µg/mL

CC(C)Oc1c(NC(=O)c2ccc(NC(=O)[C@H](CC(N)=O)NC(=O)c3ccc(NC(=O)c4ccc(NC(=O)c5ccc([N+](=O)[O-])cc5)cc4)cc3)cc2)ccc(C(=O)Nc2ccc(C(=O)O)cc2)c1O [Compound 47, (S)-4-(4-(4-(4-amino-2-(4-(4-(4-nitrobenzamido)benzamido)benzamido)-4-oxobutanamido)benzamido)-2-hydroxy-3-isopropoxybenzamido)benzoic acid]
MIC (P. aeruginosa ΔmexAB): > 64 µg/mL
MIC (E. coli ΔtolC): > 64 µg/mL
MIC (P. aeruginosa WT PA14): > 64 µg/mL
MIC (S. aureus Newman): > 64 µg/mL
MIC (E. coli WT DSM-1116): 2 µg/mL (≈ 2.1 µM)
